SMILES strings stand for the structures.

S. pneumoniae Topoisomerase IV ATPase (ParE), sequence (Q59961 whole entry): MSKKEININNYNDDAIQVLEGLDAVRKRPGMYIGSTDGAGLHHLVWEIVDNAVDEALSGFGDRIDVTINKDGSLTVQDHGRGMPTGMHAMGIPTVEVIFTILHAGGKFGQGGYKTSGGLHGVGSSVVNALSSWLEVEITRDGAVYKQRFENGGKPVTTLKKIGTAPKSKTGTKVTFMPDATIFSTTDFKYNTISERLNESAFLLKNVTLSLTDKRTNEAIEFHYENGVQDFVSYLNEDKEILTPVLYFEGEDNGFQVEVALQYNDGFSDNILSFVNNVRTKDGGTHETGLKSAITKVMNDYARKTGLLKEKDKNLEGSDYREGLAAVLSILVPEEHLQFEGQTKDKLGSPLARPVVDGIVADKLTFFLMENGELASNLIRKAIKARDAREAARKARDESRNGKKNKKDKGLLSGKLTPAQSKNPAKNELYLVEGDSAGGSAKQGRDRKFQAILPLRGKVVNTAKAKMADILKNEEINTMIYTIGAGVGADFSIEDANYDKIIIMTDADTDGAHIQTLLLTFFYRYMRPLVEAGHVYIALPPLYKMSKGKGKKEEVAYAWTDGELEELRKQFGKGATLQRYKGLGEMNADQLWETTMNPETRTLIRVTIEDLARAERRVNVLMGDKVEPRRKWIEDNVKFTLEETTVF

The experiment deals with S. pneumoniae Topoisomerase IV ATPase (ParE) (Streptococcus pneumoniae serotype 4, UniProt Q59961). The experiment can be described thus: S. pneumoniae Topoisomerase IV ATPase inhibition. The following applies: values marked * are an average of two or more data points, read-out: % Inh (13 μM) of S. pneumoniae Topoisomerase IV ATPase. The format is biochemical. In a few lines:
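Malachite green/ammonium molybdate phosphate detection, A650. 1.25 nM ParE, 160 μM ATP, sheared salmon sperm DNA 5 μg/ml, 20 mM Tris pH 8.0, 8.0 mM MgCl2. Controls: 2% DMSO = 0%, 20 μM EDTA = 100% inhibition; IC50 over 10 concentrations.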
In the case of `O=C(O)c1cncc(-c2cnc(Nc3ccc(F)c(Cl)c3)nc2NCc2nc3ccccc3[nH]2)c1` [Example 241, 5-[4-(1H-benzimidazol-2-ylmethylamino)-2-[(3-chloro-4-fluorophenyl)amino]-pyrimidin-5-yl]pyridine-3-carboxylic acid], the inhibition at 13 µM worked out at 71.5%.

With `Cc1cnc(CNc2nc(Nc3ccc(F)c(Cl)c3)ncc2-c2cncc(C(=O)O)c2)cn1` [Example 242, 5-[2-[(3-chloro-4-fluorophenyl)amino]-4-[(5-methylpyrazin-2-yl)methylamino]pyrimidin-5-yl]pyridine-3-carboxylic acid], the inhibition at 13 µM came to 61.3%.

With `CC(C)Nc1nc(Nc2ccc(F)c(Cl)c2)ncc1-c1cncc(C(=O)O)c1` [Example 243, 5-[2-[(3-chloro-4-fluorophenyl)amino]-4-(propan-2-ylamino)pyrimidin-5-yl]pyridine-3-carboxylic acid], the inhibition at 13 µM stood at 83.5%.

For the molecule `O=C(O)c1cncc(-c2cnc(Nc3ccc(F)c(Cl)c3)nc2N2CCC(O)CC2)c1` [Example 244, 5-[2-[(3-chloro-4-fluorophenyl)amino]-4-(4-hydroxypiperidin-1-yl)pyrimidin-5-yl]pyridine-3-carboxylic acid], the inhibition at 13 µM is 76.3%.

With `O=C(O)c1cncc(-c2cnc(Nc3ccc(F)c(Cl)c3)nc2N2CCCC(CO)C2)c1` (stereo not drawn) [Example 245, 5-[2-[(3-chloro-4-fluorophenyl)amino]-4-[3-(hydroxymethyl)piper-idin-1-yl]pyrimidin-5-yl]pyridine-3-carboxylic acid], the inhibition at 13 µM came to 83.1%.

For `O=C(O)c1cncc(-c2cnc(Nc3ccc(F)c(Cl)c3)nc2N2CCC(N3CCOCC3)CC2)c1` [Example 246, 5-[2-[(3-chloro-4-fluorophenyl)amino]-4-(4-morpholin-4-ylpiperidin-1-yl)pyrimidin-5-yl]pyridine-3-carboxylic acid], the inhibition at 13 µM worked out at 74.9%.

For the molecule `CNC(=O)C1CCN(c2nc(Nc3ccc(F)c(Cl)c3)ncc2-c2cncc(C(=O)O)c2)CC1` [Example 247, 5-[2-[(3-chloro-4-fluoprophenyl)amino]-4-[4-(methylcarbamoyl)-piperidin-1-yl]pyrimidin-5-yl]pyridine-3-carboxylic acid], the inhibition at 13 µM was 42.2%.

For the molecule `O=C(O)c1cncc(-c2cnc(Nc3ccc(F)c(Cl)c3)nc2N2CCC(F)CC2)c1` [Example 248, 5-[2-[(3-chloro-4-fluorophenyl)amino]-4-(4-fluoropiperidin-1-yl)pyrimidin-5-yl]pyridine-3-carboxylic acid], the inhibition at 13 µM is 66.1%.

Regarding `COC1CCN(c2nc(Nc3ccc(F)c(Cl)c3)ncc2-c2cncc(C(=O)O)c2)CC1` [Example 249, 5-[2-[(3-chloro-4-fluorophenyl)amino]-4-(4-methoxypiperidin-1-yl)pyrimidin-5-yl]pyridine-3-carboxylic acid], the inhibition at 13 µM was 70.8%.

In the case of `O=C(O)c1cncc(-c2cnc(Nc3ccc(F)c(Cl)c3)nc2N2CCC(O)C2)c1` (stereo not drawn) [Example 250, 5[2-[(3-chloro-4-fluorophenyl)amino]-4-(3-hydroxypyrrolidin-1-yl)pyrimidin-5-yl]pyridine-3-carboxylic acid], the inhibition at 13 µM is 74.4%.

In the case of `CC1CCCN1c1nc(Nc2ccc(F)c(Cl)c2)ncc1-c1cncc(C(=O)O)c1` (stereo not drawn) [Example 251, 5-[2-[(3-chloro-4-fluorophenyl)amino]-4-(2-methylpyrrolidin-1-yl)pyrimidin-5-yl]pyridine-3-carboxylic acid], the inhibition at 13 µM was determined as 79.9%.

Turning to `CC1CCC(C)N1c1nc(Nc2ccc(F)c(Cl)c2)ncc1-c1cncc(C(=O)O)c1` (stereo not drawn) [Example 252, 5-[2-[(3-chloro-4-fluorophenyl)amino]-4-(2,5-dimethylpyrrolidin-1-yl)pyrimidin-5-yl]pyridine-3-carboxylic acid], the inhibition at 13 µM stood at 81.8%.

In the case of `O=C(O)c1cncc(-c2cnc(Nc3ccc(F)c(Cl)c3)nc2N2CCC2)c1` [Example 253, 5-[4-(azetidin-1-yl)-2-[(3-chloro-4-fluorophenyl)amino]-pyrimidin-5-yl]pyridine-3-carboxylic acid], the inhibition at 13 µM turned out to be 75.1%.

As for `O=C(O)c1cncc(-c2cnc(Nc3ccc(F)c(Cl)c3)nc2N2CCCCCC2)c1` [Example 254, 5-[4-(azepan-1-yl)-2-[(3-chloro-4-fluorophenyl)amino]-pyrimidin-5-yl]pyridine-3-carboxylic acid], the inhibition at 13 µM was found to be 16.8%.

For the molecule `O=C(O)c1cncc(-c2cnc(Nc3ccc(F)c(Cl)c3)nc2N[C@H]2CC[C@H](O)CC2)c1` [Example 255, 5-[2-[(3-chloro-4-fluorophenyl)amino]-4-[(4-hydroxycyclohexyl)-amino]pyrimidin-5-yl]pyridine-3-carboxylic acid], the inhibition at 13 µM came out at 72.8%.

For `CC(=O)NC1CCN(c2nc(Nc3ccc(F)c(Cl)c3)ncc2-c2cncc(C(=O)O)c2)CC1` [Example 256, 5-[4-(4-acetamidopiperidin-1-yl)-2-[(3-chloro-4-fluorophenyl)amino]-pyrimidin-5-yl]pyridine-3-carboxylic acid], the inhibition at 13 µM came to 78.8%.

Take `O=C(O)c1cncc(-c2cnc(Nc3ccc(F)c(Cl)c3)nc2NCCc2c[nH]cn2)c1` [Example 257, 5-(2-[(3-chloro-4-fluorophenyl)amino]-4-{[2-(1H-imidazol-4-yl)ethyl]amino}pyrimidin-5-yl)pyridine-3-carboxylic acid]: the inhibition at 13 µM turned out to be 83.8%.

For the molecule `O=C(O)c1cncc(-c2cnc(Nc3ccc(F)c(Cl)c3)nc2NCCc2nc3ccccc3[nH]2)c1` [Example 258, 5-(4-{[2-(1H-benzimidazol-2-yl)ethyl]amino}-2-[(3-chloro-4-fluorophenyl)amino]-pyrimidin-5-yl)pyridine-3-carboxylic acid], the inhibition at 13 µM is 88%.

On to `O=C(O)c1cncc(-c2cnc(Nc3ccc(F)c(Cl)c3)nc2NCCn2cccn2)c1` [Example 260, 5-(2-[(3-chloro-4-fluorophenyl)amino]-4-{[2-(1H-pyrazol-1-yl)ethyl]amino}pyrimidin-5-yl)pyridine-3-carboxylic acid], for which the inhibition at 13 µM is 103%.

Take `Cc1ncsc1CCNc1nc(Nc2ccc(F)c(Cl)c2)ncc1-c1cncc(C(=O)O)c1` [Example 262, 5-(2-[(3-chloro-4-fluorophenyl)amino]-4-{[2-(4-methyl-1,3-thiazol-5-yl)ethyl]amino}pyrimidin-5-yl)pyridine-3-carboxylic acid]: the inhibition at 13 µM came out at 80.5%.

For the molecule `CN1CCN(CCNc2nc(Nc3ccc(F)c(Cl)c3)ncc2-c2cncc(C(=O)O)c2)CC1` [Example 263, 5-(2-[(3-chloro-4-fluorophenyl)amino]-4-{[2-(4-methylpiperazin-1-yl)ethyl]amino}pyrimidin-5-yl)pyridine-3-carboxylate acid], the inhibition at 13 µM worked out at 86.2%.

As for `O=C(O)/C=C/c1cccc(-c2cnc(Nc3ccc(F)c(Cl)c3)nc2NCCc2c[nH]cn2)c1` [Example 264, (2E)-3-[3-(2-[(3-chloro-4-fluorophenyl)amino]-4-{[2-(1H-imidazol-4-yl)ethyl]amino}pyrimidin-5-yl)phenyl]prop-2-enoic acid], the inhibition at 13 µM amounted to 87.8%.

On to `O=C(O)/C=C/c1cccc(-c2cnc(Nc3ccc(F)c(Cl)c3)nc2NCCc2nc3ccccc3[nH]2)c1` [Example 265, (2E)-3-[3-(4-{[2-(1H-benzimidazol-2-yl)ethyl]amino}-2-[(3-chloro-4-fluorophenyl)amino]pyrimidin-5-yl)phenyl]prop-2-enoic acid], for which the inhibition at 13 µM is 84.9%.

As to `O=C(O)/C=C/c1cccc(-c2cnc(Nc3ccc(F)c(Cl)c3)nc2NCCn2ccnc2)c1` [Example 266, (2E)-3-[3-(2-[(3-chloro-4-fluorophenyl)amino]-4-{[2-(1H-imidazol-1-yl)ethyl]amino}pyrimidin-5-yl)phenyl]prop-2-enoic acid], the inhibition at 13 µM amounted to 109%.

`O=C(O)/C=C/c1cccc(-c2cnc(Nc3ccc(F)c(Cl)c3)nc2NCCn2cccn2)c1` [Example 267, (2E)-3-[3-(2-[(3-chloro-4-fluorophenyl)amino]-4-{[2-(1H-pyrazol-1-yl)ethyl]amino}pyrimidin-5-yl)phenyl]prop-2-enoic acid]: the inhibition at 13 µM is 87.3%.

Take `O=C(O)/C=C/c1cccc(-c2cnc(Nc3ccc(F)c(Cl)c3)nc2NCCc2cn[nH]c2)c1` [Example 268, (2E)-3-[3-(2-[(3-chloro-4-fluorophenyl)amino]-4-{[2-(1H-pyrazol-4-yl)ethyl]amino}pyrimidin-5-yl)phenyl]prop-2-enoic acid]: the inhibition at 13 µM came out at 83%.

Consider `Cc1ncsc1CCNc1nc(Nc2ccc(F)c(Cl)c2)ncc1-c1cccc(/C=C/C(=O)O)c1` [Example 269, (2E)-3-[3-(2-[(3-chloro-4-fluorophenyl)amino]-4-{[2-(4-methyl-1,3-thiazol-5-yl)ethyl]amino}pyrimidin-5-yl)phenyl]prop-2-enoic acid], for which the inhibition at 13 µM turned out to be 78%.

As for `CN1CCN(CCNc2nc(Nc3ccc(F)c(Cl)c3)ncc2-c2cccc(/C=C/C(=O)O)c2)CC1` [Example 270, (2E)-3-[3-(2-[(3-chloro-4-fluorophenyl)amino]-4-{[2-(4-methylpiperazin-1-yl)ethyl]amino}pyrimidin-5-yl)phenyl]prop-2-enoic acid], the inhibition at 13 µM was 87.7%.

For the molecule `O=C(O)c1cncc(-c2cnc(Nc3ccc(F)c(Cl)c3)nc2NCCCc2nc3ccccc3[nH]2)c1` [Example 271, 5-(4-(3-(1H-benzo[d]imidazol-2-yl)propylamino)-2-(3-chloro-4-fluorophenylamino)-pyrimidin-5-yl)nicotinic acid], the inhibition at 13 µM was determined as 86.6%.

With `CC1CN(c2nc(Nc3ccc(F)c(Cl)c3)ncc2-c2cncc(C(=O)O)c2)CC(C)O1` (stereo not drawn) [Example 272, 5-(2-(3-chloro-4-fluorophenylamino)-4-(2,6-dimethylmorpholino)-pyrimidin-5-yl)nicotinic acid], the inhibition at 13 µM was 81.1%.
